Experimental data reported in article PMC10674780, “In Vitro and In Vivo Effects of Synthesis Novel Phenoxyacetamide Derivatives as Potent Apoptotic Inducer against HepG2 Cells through PARP-1 Inhibition” (Pharmaceuticals, 2023).

Biological target: T1, PARP-1 (Homo sapiens, UniProt P09874)
T1 construct: gene PARP1
Experiment: PARP-1 inhibition assay kit (Cat No. […])
Type: biochemical

T1 sequence (P09874 2-1014): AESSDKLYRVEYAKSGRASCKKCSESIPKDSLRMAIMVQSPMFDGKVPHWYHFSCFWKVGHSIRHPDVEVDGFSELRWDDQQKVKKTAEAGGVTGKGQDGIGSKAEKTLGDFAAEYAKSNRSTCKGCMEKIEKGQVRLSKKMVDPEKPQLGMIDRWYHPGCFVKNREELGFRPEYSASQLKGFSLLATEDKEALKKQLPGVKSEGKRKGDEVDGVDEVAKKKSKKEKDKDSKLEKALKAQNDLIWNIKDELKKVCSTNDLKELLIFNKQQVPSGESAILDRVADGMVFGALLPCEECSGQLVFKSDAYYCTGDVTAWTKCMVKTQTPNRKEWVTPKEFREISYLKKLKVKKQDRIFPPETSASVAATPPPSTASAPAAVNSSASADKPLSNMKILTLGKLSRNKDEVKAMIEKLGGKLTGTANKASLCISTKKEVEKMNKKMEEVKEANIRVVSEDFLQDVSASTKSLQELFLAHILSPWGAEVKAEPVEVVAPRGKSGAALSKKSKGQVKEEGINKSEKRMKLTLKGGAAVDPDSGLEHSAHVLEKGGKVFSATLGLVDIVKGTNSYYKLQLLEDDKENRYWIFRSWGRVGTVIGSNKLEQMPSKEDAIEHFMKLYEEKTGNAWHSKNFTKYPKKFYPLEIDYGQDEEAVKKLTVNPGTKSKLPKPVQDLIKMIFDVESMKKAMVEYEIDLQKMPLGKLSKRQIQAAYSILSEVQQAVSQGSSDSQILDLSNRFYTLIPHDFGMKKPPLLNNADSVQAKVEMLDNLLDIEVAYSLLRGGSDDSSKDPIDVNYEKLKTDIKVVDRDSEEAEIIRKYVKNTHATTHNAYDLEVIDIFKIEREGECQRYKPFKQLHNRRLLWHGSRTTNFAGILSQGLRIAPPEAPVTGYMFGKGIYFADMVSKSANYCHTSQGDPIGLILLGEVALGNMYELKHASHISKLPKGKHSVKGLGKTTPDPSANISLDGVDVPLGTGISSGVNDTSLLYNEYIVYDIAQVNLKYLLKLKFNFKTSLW

`NNC(=O)CNC(=O)COc1cc(Cl)c(Cl)cc1Cl` [I, N-(2-hydrazineyl-2-oxoethyl)-2-(2.4.5-trichlorophenoxy) acetamide] was tested, and the IC50 was 1.52 nM.
